According to patent EP1330253B1, “USE OF BIOACTIVE FRACTION FROM COW URINE DISTILLATE ('GO MUTRA') AS A BIO-ENHANCER OF ANTI-INFECTIVE, ANTI-CANCER AGENTS AND NUTRIENTS” (Council of Scientific and Industrial Research, priority 2000, dated 2002):
Like-named read-outs stand apart in the source and are kept apart here. Values belong to the compound of their own block, whether it stands above or below them.

What was measured:
Mycobacterium smegmatis = experiment: Bio-enhancement of anti-infective agents, broth assay with viable cell count; format: cell-based; settings: for Fold enhancement in antibiotic activity: cow urine distillate 1 µl/ml
Experimental: (§1) • a) The minimum inhibitory concentration (MIC) of antibiotic is determined against Escherichia coli (equivalent of ATCC 10536), Bacillus subtilis (equivalent of ATCC 6015) and Mycobacterium smegmatis (equivalent of ATCC 10231) in broth and disc diffusion assay. • b) The antibiotics agents at concentrations 1/4, 1/3, 1/2 and equal to MIC are added alone and in combination with the test compound at varying concentrations on disc and in broth to evaluate the comparative inhibition. • c) These combination showing significant advantage or higher activity than antibiotic alone in terms of enhanced inhibition of bacterial growth (large inhibition zone in disc diffusion and affectivity of lower concentration in broth assay) are picked up for future testing. • d) In broth assay the activity is quantified by counting number of viable cells in a given treatment and converted in fold enhancement by combination compared to antibiotic / drug alone in the killing percentage of cells. • e) The pre-treatment assay followed to determine whether the compound is required along with antibiotic to enhance its activity or even its withdrawal after treatment or prior to antibiotic treatment would benefit. For this, the cells are treated with compound for 4 to 8 hours and then washed free of it by centrifugation and washing in sterile water. This was followed by treatment with antibiotic as in steps b to d.
(§2) In the next step of elucidation of the enhancer action, the applicants experimented with the killing activities of different antibiotics against the bacteria singly and in combination with the test component (cow urine distillate) following the method described above. These experiments are being described in the following examples. […] In all the experiments the cow urine distillate concentration was kept at 1 µl/ml, unless it is specifically mentioned.

Bacillus subtilis = experiment: as above; format: cell-based; settings: for Fold enhancement in antibiotic activity: cow urine distillate 1 µl/ml
Experimental: as §1, §2

Escherichia coli = experiment: as above; format: cell-based; settings: for Fold enhancement in antibiotic activity: cow urine distillate 1 µl/ml
Experimental: as §1, §2

[1] = Bioenhancement of antifungal agent, minimum inhibitory concentration; format: cell-based; settings: active fraction Gm-IV kept at 10 µg/ml in the combination
[2] = test system: oxyR mutant of bacterium Escherichia coli; format: cell-based; settings: for Fold enhancement in isoniazid/H2O2 activity: cow urine distillate 0.001 µl/ml
Experimental: For this, the cells are treated with compound for 4 to 8 hours and then washed free of it by centrifugation and washing in sterile water. This was followed by treatment with antibiotic as in steps b to d.

[3] = for OD measured as Absorbance (specific to the compound maxima) across the membrane in receiving tube after 1 hr / OD measured as Absorbance (specific to the compound maxima) across the membrane in receiving tube after 2 hr / OD measured as Absorbance (specific to the compound maxima) across the membrane in receiving tube after 3 hr / OD measured as Absorbance (specific to the compound maxima) across the membrane in receiving tube after 4hr / OD measured as Absorbance (specific to the compound maxima) across the membrane in receiving tube after 5 hr / OD measured as Absorbance (specific to the compound maxima) across the membrane in receiving tube after 6 hr: Rifampicin 1mg/ml, fraction Gm-IV 1.0µg/ml
MCF-7 = experiment: Bio-enhancement of anti-cancer agents, viable cell count; format: cell-based; settings: distillate at 1 µl/ml
Experimental: • a) MCF-7 (Breast cancer commercial cell line obtained from National Center for Cell Sciences (NCCS), Pune) is inoculated at a density of about 0.1 X 10^6 cells in MEM medium in the wells of 24 well plate. • b) This is replaced with fresh medium after 18 hours in each well. • c) The test component (s) is added at desired concentrations in different wells just after the medium replacement. • d) Observations are recorded on the cell count after 36 hours for which the allowing steps are required. • i. The medium is removed from the wells. • ii. The wells are rinsed with 1ml PBS (Phosphate buffer saline). • iii. To each well 500 µl of freshly prepared trypsin (0.1% in PBS) solution is added. • iv. Trypsin solution is removed after 30 seconds and the plate is gently tapped till the cells are released from the plate surface. • v. Fresh 1 ml of MEM growth medium is added and agitated with a pipette to obtain a cell suspension. • vi. 10 µl of cell suspension is taken on the haemocytometer and a cover glass is placed over the counting chamber. • vii. The number of viable cells is counted in 5 big squares and the readings are taken from 5 microscopic fields to determine the average. • viii. The cell count (titer per ml) in the original sample is then calculated as average count X 10^3.

[4] = antibiotic 0.5 µg/ml + cow urine distillate 1 µl/ml
[5] = antibiotic 0.1 µg/ml + cow urine distillate 1 µl/ml
[6] = antibiotic 0.05 µg/ml + cow urine distillate 1 µl/ml

SMILES: CC1(C)S[C@@H]2[C@H](NC(=O)[C@H](N)c3ccccc3)C(=O)N2[C@H]1C(=O)O [Ampicillin]
Survival fraction of viable cells upon treatment with antibiotic alone (Mycobacterium smegmatis; antibiotic 0.5 µg/ml): 0.07 | Survival fraction of viable cells upon treatment with antibiotic + cow urine distillate combination (Mycobacterium smegmatis; [4]): 0.006 | Fold enhancement in antibiotic activity (Mycobacterium smegmatis; antibiotic 0.5 µg/ml): 11.6 | Survival fraction of viable cells upon treatment with antibiotic alone (Bacillus subtilis; antibiotic 0.1 µg/ml): 1.00 | Survival fraction of viable cells upon treatment with antibiotic + cow urine distillate combination (Bacillus subtilis; [5]): 0.3 | Fold enhancement in antibiotic activity (Bacillus subtilis; antibiotic 0.1 µg/ml): 3.3 | Survival fraction of viable cells upon treatment with antibiotic alone (Bacillus subtilis; antibiotic 0.5 µg/ml): 0.18 | Survival fraction of viable cells upon treatment with antibiotic + cow urine distillate combination (Bacillus subtilis; [4]): 0.06 | Fold enhancement in antibiotic activity (Bacillus subtilis; antibiotic 0.5 µg/ml): 3.0 | Survival fraction of viable cells upon treatment with antibiotic alone (Escherichia coli; antibiotic 4 µg/ml): 1.11 | Survival fraction of viable cells upon treatment with amlibiotic + cow urine distillate combination (Escherichia coli; antibiotic 4 µg/ml + cow urine distillate 1 µl/ml): 0.60 | Fold enhancement in antibiotic activity (Escherichia coli; antibiotic 4 µg/ml): 1.85 | Survival fraction of viable cells upon treatment with antibiotic alone (Escherichia coli; antibiotic 6 µg/ml): 0.09 | Survival fraction of viable cells upon treatment with amlibiotic + cow urine distillate combination (Escherichia coli; antibiotic 6 µg/ml + cow urine distillate 1 µl/ml): 0.02 | Fold enhancement in antibiotic activity (Escherichia coli; antibiotic 6 µg/ml): 4.50 | Survival fraction of viable cells upon treatment with antibiotic alone (Escherichia coli; antibiotic 8 µg/ml): 0.05 | Survival fraction of viable cells upon treatment with amlibiotic + cow urine distillate combination (Escherichia coli; antibiotic 8 µg/ml + cow urine distillate 1 µl/ml): 0.01 | Fold enhancement in antibiotic activity (Escherichia coli; antibiotic 8 µg/ml): 5.00

SMILES: Clc1ccccc1C(c1ccccc1)(c1ccccc1)n1ccnc1 [Clotrimazol]
Fold enhancement [1]: 0.0 | Minimum inhibitory Concentration (MIC) [1]: 4.40 µg/mL

SMILES: OO [Hydrogen peroxide (H2O2), Hydrogen peroxide]
Viable cell count ([2]; 0.003 %v/v): 7.14 x10^7 | Viable cell count ([2]; 0.003 %v/v + cow urine distillate 0.001 µl/ml): 1.2 x10^7 | Fold enhancement in isoniazid/H2O2 activity ([2]; 0.003 %v/v): 5.9

SMILES: NNC(=O)c1ccncc1 [Isoniazid]
Viable cell count ([2]; 250µg/ml): 7.5 x10^7 | Viable cell count ([2]; 250µg/ml + cow urine distillate 0.001 µl/ml): 0.99 x10^7 | Fold enhancement in isoniazid/H2O2 activity ([2]; 250µg/ml): 7.5 | enhancement action for INH ([2]; distillate at 10-50 thousand-fold dilution in the final volume of culture, organism not stated): showed enhancement action

OD measured as Absorbance (specific to the compound maxima) across the membrane in receiving tube after 1 hr ([3]; A340): 0.0097 | OD measured as Absorbance (specific to the compound maxima) across the membrane in receiving tube after 2 hr ([3]; A340): 0.0214 | OD measured as Absorbance (specific to the compound maxima) across the membrane in receiving tube after 3 hr ([3]; A340): 0.0334 | OD measured as Absorbance (specific to the compound maxima) across the membrane in receiving tube after 4hr ([3]; A340): 0.0771 | OD measured as Absorbance (specific to the compound maxima) across the membrane in receiving tube after 5 hr ([3]; A340): 0.0858 | OD measured as Absorbance (specific to the compound maxima) across the membrane in receiving tube after 6 hr ([3]; A340): 0.0910 | OD measured as Absorbance (specific to the compound maxima) across the membrane in receiving tube after 1 hr ([3]; A475): 0.0177 | OD measured as Absorbance (specific to the compound maxima) across the membrane in receiving tube after 2 hr ([3]; A475): 0.0284 | OD measured as Absorbance (specific to the compound maxima) across the membrane in receiving tube after 3 hr ([3]; A475): 0.0309 | OD measured as Absorbance (specific to the compound maxima) across the membrane in receiving tube after 4hr ([3]; A475): 0.0412 | OD measured as Absorbance (specific to the compound maxima) across the membrane in receiving tube after 5 hr ([3]; A475): 0.0484 | OD measured as Absorbance (specific to the compound maxima) across the membrane in receiving tube after 6 hr ([3]; A475): 0.0496 | enhancement of bioavailability across the mammalian gut membrane ([3]; with the sample, goat intestine, within 2 hours, keeps increasing upto 4 hours): enhancement of bioavailability
SMILES: CO[C@H]1/C=C/O[C@@]2(C)Oc3c(C)c(O)c4c(O)c(c(/C=N/N5CCN(C)CC5)c(O)c4c3C2=O)NC(=O)/C(C)=C\C=C\[C@H](C)[C@H](O)[C@@H](C)[C@@H](O)[C@@H](C)[C@H](OC(C)=O)[C@@H]1C [Rifampicin]
Survival fraction of viable cells upon treatment with antibiotic alone (Mycobacterium smegmatis; antibiotic 0.05 µg/ml): 0.008 | Survival fraction of viable cells upon treatment with antibiotic + cow urine distillate combination (Mycobacterium smegmatis; [6]): 0.0001 | Fold enhancement in antibiotic activity (Mycobacterium smegmatis; antibiotic 0.05 µg/ml): 80 | Survival fraction of viable cells upon treatment with antibiotic alone (Mycobacterium smegmatis; antibiotic 0.1 µg/ml): 0.006 | Survival fraction of viable cells upon treatment with antibiotic + cow urine distillate combination (Mycobacterium smegmatis; [5]): 0.0036 | Fold enhancement in antibiotic activity (Mycobacterium smegmatis; antibiotic 0.1 µg/ml): 1.5 | Survival fraction of viable cells upon treatment with antibiotic alone (Bacillus subtilis; antibiotic 0.005 µg/ml): 1.1 | Survival fraction of viable cells upon treatment with antibiotic + cow urine distillate combination (Bacillus subtilis; antibiotic 0.005 µg/ml + cow urine distillate 1 µl/ml): 0.28 | Fold enhancement in antibiotic activity (Bacillus subtilis; antibiotic 0.005 µg/ml): 5.5 | Survival fraction of viable cells upon treatment with antibiotic alone (Bacillus subtilis; antibiotic 0.05 µg/ml): 0.03 | Survival fraction of viable cells upon treatment with antibiotic + cow urine distillate combination (Bacillus subtilis; [6]): 0.01 | Fold enhancement in antibiotic activity (Bacillus subtilis; antibiotic 0.05 µg/ml): 3.0 | Survival fraction of viable cells upon treatment with antibiotic alone (Escherichia coli; antibiotic 10 µg/ml): 0.86 | Survival fraction of viable cells upon treatment with amlibiotic + cow urine distillate combination (Escherichia coli; antibiotic 10 µg/ml + cow urine distillate 1 µl/ml): 0.17 | Fold enhancement in antibiotic activity (Escherichia coli; antibiotic 10 µg/ml): 5.0 | Survival fraction of viable cells upon treatment with antibiotic alone (Escherichia coli; antibiotic 30 µg/ml): 0.05 | Survival fraction of viable cells upon treatment with amlibiotic + cow urine distillate combination (Escherichia coli; antibiotic 30 µg/ml + cow urine distillate 1 µl/ml): 0.007 | Fold enhancement in antibiotic activity (Escherichia coli; antibiotic 30 µg/ml): 7.1

SMILES: CC(=O)O[C@H]1C(=O)[C@@]2(C)[C@H]([C@H](OC(=O)c3ccccc3)[C@]3(O)C[C@H](OC(=O)[C@H](O)[C@@H](NC(=O)c4ccccc4)c4ccccc4)C(C)=C1C3(C)C)[C@]1(OC(C)=O)CO[C@@H]1C[C@@H]2O [Taxol, Paclitaxel]
enhancement in the activity of taxol (MCF-7): at least 5 folds
